Measurements published in PubChem BioAssay AID330 (DTP/NCI, 2004).
Several values for one entry are separate records, joined by “and”; a condition that tells them apart may be missing. Equal values may be shown once. Inconclusive results and toxic doses are left out. Peptide text beside a SMILES is read from it.

System: P388 leukemia ip, CD2F1 mice, survival T/C
Assay: NCI In Vivo Anticancer Drug Screen. Data for tumor model P388 Leukemia (intraperitoneal) in CD2F1 (CDF1) mice
Details: endpoint: median survival time, higher = longer survival
Outline: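 Mice carrying the transplanted tumor received test compound or vehicle. Survival was recorded in each group, and the value is the treated-group measurement divided by that of the vehicle-treated control group.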

[1] = dose: 25.0 mg/kg/injection, schedule: Q01DX009 (ip), vehicle: saline with Tween-80
[2] = dose: 100.0 mg/kg/injection, schedule: Q01DX009 (ip), vehicle: saline with Tween-80
[3] = dose: 25.0 mg/kg/injection, schedule: Q04DX003 (ip), vehicle: saline with Tween-80
[4] = dose: 50.0 mg/kg/injection, schedule: Q04DX003 (ip), vehicle: saline with Tween-80
[5] = dose: 100.0 mg/kg/injection, schedule: Q04DX003 (ip), vehicle: saline with Tween-80
[6] = dose: 60.0 mg/kg/injection, schedule: Q01DX005 (ip), vehicle: saline with Tween-80
[7] = dose: 6.25 mg/kg/injection, schedule: Q01DX009 (ip), vehicle: saline with Tween-80
[8] = dose: 12.5 mg/kg/injection, schedule: Q01DX009 (ip), vehicle: saline with Tween-80
[9] = dose: 50.0 mg/kg/injection, schedule: Q01DX005 (ip), vehicle: saline with Tween-80
[10] = dose: 100.0 mg/kg/injection, schedule: Q01DX005 (ip), vehicle: saline with Tween-80
[11] = dose: 200.0 mg/kg/injection, schedule: Q01DX005 (ip), vehicle: saline with Tween-80
[12] = dose: 100.0 mg/kg/injection, schedule: Q01DX001 (ip), vehicle: saline
[13] = dose: 200.0 mg/kg/injection, schedule: Q04DX003 (ip), vehicle: saline with Tween-80

## O=C1NC(c2cccc3ccccc23)Nc2ccc(O)cc21 (centres undefined)
dose: 8.75 mg/kg/injection, schedule: Q01DX005 (ip), vehicle: DMSO
  T/C: 102 % of control
dose: 17.5 mg/kg/injection, schedule: Q01DX005 (ip), vehicle: DMSO
  T/C: 100 % of control
dose: 35.0 mg/kg/injection, schedule: Q01DX005 (ip), vehicle: DMSO
  T/C: 102 % of control
dose: 70.0 mg/kg/injection, schedule: Q01DX005 (ip), vehicle: DMSO
  T/C: 98 % of control
dose: 140.0 mg/kg/injection, schedule: Q01DX005 (ip), vehicle: DMSO
  T/C: 100 % of control

## CC(=O)N(c1nc2ccccc2n1C)C(C)C
[1]
  T/C: 110 % of control
dose: 50.0 mg/kg/injection, schedule: Q01DX009 (ip), vehicle: saline with Tween-80
  T/C: 98 % of control
[2]
  T/C: 115 % of control

## Cn1nc[n+](C)n1
dose: 12.5 mg/kg/injection, schedule: Q01DX009 (ip), vehicle: saline
  T/C: 91 % of control
dose: 25.0 mg/kg/injection, schedule: Q01DX009 (ip), vehicle: saline
  T/C: 91 % of control

## CC(C)COP(=O)(OCC(C)C)OCC(C)C.CC(C)COP(=O)(OCC(C)C)OCC(C)C.CC(C)COP(=O)(OCC(C)C)OCC(C)C.CC(C)COP(=O)(OCC(C)C)OCC(C)C.O.O.[Co+2].[O-][Cl+3]([O-])([O-])O
[3]
  T/C: 94 % of control
[4]
  T/C: 99 % of control
[5]
  T/C: 114 % of control and 116 % of control

## CC(C)CC(=O)CC(=O)C(C)(C)C.CC(C)CC(=O)CC(=O)C(C)(C)C.CC(C)CC(=O)CC(=O)C(C)(C)C.[Cr]
dose: 50.0 mg/kg/injection, schedule: Q01DX009 (ip), vehicle: distilled water + alcohol
  T/C: 97 % of control
dose: 100.0 mg/kg/injection, schedule: Q01DX009 (ip), vehicle: distilled water + alcohol
  T/C: 107 % of control
dose: 200.0 mg/kg/injection, schedule: Q01DX009 (ip), vehicle: distilled water + alcohol
  T/C: 103 % of control

## [B-]1n2ccc[n+]2[B-]n2ccc[n+]21
dose: 15.0 mg/kg/injection, schedule: Q01DX005 (ip), vehicle: saline with Tween-80
  T/C: 100 % of control
dose: 30.0 mg/kg/injection, schedule: Q01DX005 (ip), vehicle: saline with Tween-80
  T/C: 100 % of control
[6]
  T/C: 98 % of control

## COc1cc(OC)c(OC)cc1/C=C\c1ccc2ccccc2[n+]1C
dose: 3.12 mg/kg/injection, schedule: Q01DX009 (ip), vehicle: saline with Tween-80
  T/C: 105 % of control
[7]
  T/C: 110 % of control
[8]
  T/C: 111 % of control and 122 % of control
[1]
  T/C: 123 % of control

## OCN1CCC23c4c5ccc(O)c4OC2C(O)C=CC3C1C5 (centres undefined)
[9]
  T/C: 100 % of control
[10]
  T/C: 100 % of control
[11]
  T/C: 100 % of control

## CCOC1CC2(O)c3c(cc4c(c3O)C(=O)c3c(O)ccc(O)c3C4=O)OC2O1 (centres undefined)
[12]
  T/C: 103 % of control
dose: 200.0 mg/kg/injection, schedule: Q01DX001 (ip), vehicle: saline
  T/C: 109 % of control
dose: 400.0 mg/kg/injection, schedule: Q01DX001 (ip), vehicle: saline
  T/C: 116 % of control

## C=Cn1ccnc1C.C=Cn1ccnc1C.CC(=O)CC(C)=O.CC(=O)CC(C)=O.[Co]
dose: 12.5 mg/kg/injection, schedule: Q04DX003 (ip), vehicle: saline
  T/C: 117 % of control and 95 % of control
dose: 25.0 mg/kg/injection, schedule: Q04DX003 (ip), vehicle: saline
  T/C: 102 % of control and 117 % of control
dose: 50.0 mg/kg/injection, schedule: Q04DX003 (ip), vehicle: saline
  T/C: 105 % of control and 123 % of control

## O=C1C(=O)N(c2ccccc2)C(=O)N1c1ccccc1
[7]
  T/C: 96 % of control
[8]
  T/C: 105 % of control
[1]
  T/C: 104 % of control and 89 % of control
[2]
  T/C: 101 % of control and 86 % of control

## NC(=O)CC1(C(=O)O)c2ccccc2-c2ccccc21
[5]
  T/C: 97 % of control
[13]
  T/C: 97 % of control
dose: 400.0 mg/kg/injection, schedule: Q04DX003 (ip), vehicle: saline with Tween-80
  T/C: 108 % of control

## CN(C)CCCNC(=O)Cc1cc(O)c2c(c1O)C(=O)c1ccccc1C2=O
[3]
  T/C: 106 % of control
[4]
  T/C: 106 % of control
[5]
  T/C: 104 % of control and 123 % of control
[13]
  T/C: 120 % of control and 95 % of control

## C=CCn1c(NCCN(CC)CC)nc2ccc(Cl)cc2c1=O
dose: 12.5 mg/kg/injection, schedule: Q01DX009 (ip), vehicle: saline sonified
  T/C: 100 % of control
dose: 25.0 mg/kg/injection, schedule: Q01DX009 (ip), vehicle: saline sonified
  T/C: 104 % of control
dose: 50.0 mg/kg/injection, schedule: Q01DX009 (ip), vehicle: saline sonified
  T/C: 104 % of control

## CNC(=O)OCc1c(COC(=O)NC)c(C)n(-c2ccc3c(c2)OCO3)c1C
dose: 50.0 mg/kg/injection, schedule: Q01DX009 (ip), vehicle: Klucel (hydroxypropylcellulose) (HPC)
  T/C: 89 % of control

## CS(=N)(=O)CCC(N)C(=O)O (centres undefined) (tested in a mixture with another compound)
dose: 25.0 mg/kg/injection, schedule: Q01DX001 (ip), vehicle: saline
  T/C: 100 % of control
dose: 50.0 mg/kg/injection, schedule: Q01DX001 (ip), vehicle: saline
  T/C: 105 % of control
[12]
  T/C: 105 % of control

## CCOC(=O)C1CCCCC12Nc1cccc3cccc(c13)N2 (centres undefined)
[9]
  T/C: 95 % of control
[10]
  T/C: 105 % of control
[11]
  T/C: 113 % of control

## COc1c2occc2c(OC(C)C(=O)O)c2c(O)cc(=O)oc12 (centres undefined)
[9]
  T/C: 95 % of control
[10]
  T/C: 101 % of control
[11]
  T/C: 95 % of control

## CC(O)C(N)C(=O)NC(Cc1ccc(O)cc1)C(=O)NC(CO)C(=O)NC(CCCCN)C(=O)O (centres undefined) (H-TYSK-OH; configuration not given here)
dose: 50.0 mg/kg/injection, schedule: Q01DX005 (ip), vehicle: saline
  T/C: 99 % of control
dose: 100.0 mg/kg/injection, schedule: Q01DX005 (ip), vehicle: saline
  T/C: 107 % of control
dose: 200.0 mg/kg/injection, schedule: Q01DX005 (ip), vehicle: saline
  T/C: 106 % of control

## COC(=O)C1CSC(c2c(CO)cnc(C)c2O)N1 (centres undefined)
dose: 100.0 mg/kg/injection, schedule: Q04DX002 (ip), vehicle: saline + Tween-80 + alcohol
  T/C: 105 % of control
dose: 200.0 mg/kg/injection, schedule: Q04DX002 (ip), vehicle: saline + Tween-80 + alcohol
  T/C: 96 % of control
dose: 400.0 mg/kg/injection, schedule: Q04DX002 (ip), vehicle: saline + Tween-80 + alcohol
  T/C: 107 % of control

## Cc1c(Cl)c(O)cc2oc3cc(O)cc(O)c3c(=O)c12
dose: 10.0 mg/kg/injection, schedule: Q04DX003 (ip), vehicle: Klucel (hydroxypropylcellulose) (HPC)
  T/C: 105 % of control
dose: 20.0 mg/kg/injection, schedule: Q04DX003 (ip), vehicle: Klucel (hydroxypropylcellulose) (HPC)
  T/C: 102 % of control
dose: 40.0 mg/kg/injection, schedule: Q04DX003 (ip), vehicle: Klucel (hydroxypropylcellulose) (HPC)
  T/C: 105 % of control

## C=CCn1c(=O)n(CC)c(=O)c2[nH]c(Cl)nc21
dose: 15.0 mg/kg/injection, schedule: Q01DX009 (ip), vehicle: saline
  T/C: 106 % of control
dose: 30.0 mg/kg/injection, schedule: Q01DX009 (ip), vehicle: saline
  T/C: 110 % of control
dose: 60.0 mg/kg/injection, schedule: Q01DX009 (ip), vehicle: saline
  T/C: 104 % of control

## O=C1C=C(c2ccccc2)S(=O)(=O)c2c(O)cccc21
[9]
  T/C: 121 % of control
[10]
  T/C: 119 % of control
[11]
  T/C: 118 % of control

## CC(C)OC(=O)Nc1ccc2nc(-c3cscn3)[nH]c2c1
[9]
  T/C: 110 % of control
[10]
  T/C: 114 % of control and 121 % of control
[11]
  T/C: 151 % of control
dose: 400.0 mg/kg/injection, schedule: Q01DX005 (ip), vehicle: saline with Tween-80
  T/C: 180 % of control

## CCOc1nc(N)nc(C)c1N=Nc1cccc(Cl)c1
dose: 60.0 mg/kg/injection, schedule: Q01DX005 (ip), vehicle: Klucel + Tween-80
  T/C: 101 % of control
dose: 120.0 mg/kg/injection, schedule: Q01DX005 (ip), vehicle: Klucel + Tween-80
  T/C: 107 % of control
dose: 240.0 mg/kg/injection, schedule: Q01DX005 (ip), vehicle: Klucel + Tween-80
  T/C: 100 % of control

## Nc1ncnc2c1ncn2C1OC(COC(c2ccccc2)(c2ccccc2)c2ccccc2)C(O)C1O (centres undefined)
[9]
  T/C: 100 % of control
[10]
  T/C: 95 % of control
[11]
  T/C: 90 % of control

## CCNC1CCC(Nc2ccnc3cc(Cl)ccc23)CC1 (centres undefined)
dose: 50.0 mg/kg/injection, schedule: Q01DX005 (ip), vehicle: Klucel (hydroxypropylcellulose) (HPC)
  T/C: 95 % of control
dose: 100.0 mg/kg/injection, schedule: Q01DX005 (ip), vehicle: Klucel (hydroxypropylcellulose) (HPC)
  T/C: 87 % of control

## COc1ccc(C(c2cc3c(cc2O)OCO3)n2ccnc2)cc1 (centres undefined)
[6]
  T/C: 99 % of control
dose: 120.0 mg/kg/injection, schedule: Q01DX005 (ip), vehicle: saline with Tween-80
  T/C: 99 % of control
dose: 240.0 mg/kg/injection, schedule: Q01DX005 (ip), vehicle: saline with Tween-80
  T/C: 96 % of control

## CCC(=O)C(=O)CC1CC(c2ccco2)=Nc2ccccc2S1 (centres undefined)
[9]
  T/C: 111 % of control
[10]
  T/C: 113 % of control
[11]
  T/C: 102 % of control
